Measurements reported in patent US4885284A, “Dihydropyridine-5-phosphonic acid cyclic propylene ester” (Nissan Chemical Industries Ltd., priority 1986, dated 1989).
Structures can show the parent of a compound that is named as a salt.

Assays:
[1] = tested on: taenia caecum of guinea pig; assay: Calcium antagonistic effect (relaxation of CaCl2-induced contraction in K+-depolarized taenia caecum); format: cell-based; details: Cavia porcellus; -log ID50 (M); 50% relaxation relative to maximum relaxation by 10^-4 M papaverine; 37° C, 10 mM CaCl2; read-out: pID50 (calcium antagonistic effect) (converted)
Method: 10 mm in situ length of taenia caecum of guinea pig was suspended at a tension of 1 g in a 20 ml organ bath filled with a physiological salt solution (NaCl: 135 mM, KCl: 5 mM etc.).
This solution was bubbled with a gas mixture of 95% O2 -5% CO2 and kept at 37° C. Then, the preparation was depolarized by a K^+ rich solution (NaCl: 40 mM, KCl: 100 mM). After 10-20 minutes equilibration period, 10 mM of CaCl2 was added to the bathing solution. The contraction was produced, and then the test compound applied cumulatively. The relaxation produced was expressed as percentage of the maximum relaxation produced by 10^-4 M papaverine, and the concentration of the compound producing 50% relaxation, i.e. ID50 (M), was calculated.

[2] = tested on: male spontaneously hypertensive rat (SHR); assay: Antihypertensive effect (systolic blood pressure, tail cuff method, oral, SHR); format: in vivo; details: systolic blood pressure at 2, 4, 6 and 8 hours
Method: After oral administration of the test compound dissolved in a H2 O-PEG 400 solvent mixture (H2 O:PEG 400 (w/w)=1:3) to the male spontaneously hypertensive rat (SHR), the systolic blood pressure was measured at 2, 4, 6 and 8 hours after the administration of the test compounds by a tail cuff method. Prior to the measurement, rats were warmed at 50° C. for five minutes. The effectively antihypertensive activities were observed also at 8 hours after the administraton of the test compounds. Test 2: Acute toxicity test

[3] = Acute toxicity test (oral LD50); details: mouse, in vivo; oral (5% solution), male ddY mice, seven days, Litchfield-Wilcoxon
Method: ddY mice (.male., 4 weeks old) were divided into groups of five mice and the test compound dissolved in purified water was administered orally (5% solution) (p.o) to the male ddY mice.
After seven days, LD50 values were calculated from the dead […] recorded in the individual dosage groups by the method of Litchfield-Wilcoxon.

Row | SMILES | IC50 [1] | Antihypertensive effect, maximum decrease ([2]; dose 10 mg/kg) | LD50 at 168 h [3] | Antihypertensive effect, maximum decrease ([2]; dose 15 mg/kg) | Antihypertensive effect, maximum decrease ([2]; dose 20 mg/kg)
1 | CC1=C(C(=O)OC(C)CN(Cc2ccccc2)c2ccccc2)C(c2cccc(Cl)c2Cl)C(P2(=O)O[C@H](C)C[C@@H](C)O2)=C(C)N1 (some centres unmarked) [Hydrochloride of Example 6] | 1.05e-07 M | 28% | > 300 mg/kg |  | 
2 | CC1=C(C(=O)OCCN(Cc2ccccc2)c2ccccc2)C(c2cccc([N+](=O)[O-])c2)C(P2(=O)O[C@H](C)C[C@@H](C)O2)=C(C)N1 (some centres unmarked) [Hydrochloride of Example 7] | 6.76e-09 M |  | > 600 mg/kg | 34% | 
3 | CC1=C(C(=O)OCCN(Cc2ccccc2)c2ccccc2)C(c2cccc([N+](=O)[O-])c2)C(P2(=O)OC(C)(C)CC(C)(C)O2)=C(C)N1 (centres unmarked) [Hydrochloride of Example 5] |  | 40% | > 300 mg/kg |  | 
4 | CC1=C(C(=O)OCCN2CCN(C(c3ccccc3)c3ccccc3)CC2)C(c2cccc(Cl)c2Cl)C(P2(=O)OCC(C)(C)CO2)=C(C)N1 (centres unmarked) [Dihydrochloride of Example 2] | 9.77e-08 M | 37% | > 400 mg/kg |  | 
5 | CC1=C(C(=O)OC(C)CN(Cc2ccccc2)c2ccccc2)C(c2cccc([N+](=O)[O-])c2)C(P2(=O)OC(C)(C)CC(C)(C)O2)=C(C)N1 (centres unmarked) [Hydrochloride of Example 4] | 1.26e-07 M |  | > 300 mg/kg |  | 38%
6 | CC1=C(C(=O)OCCN(Cc2ccccc2)c2ccccc2)C(c2cccc([N+](=O)[O-])c2)C(P2(=O)OCC(C)(C)CO2)=C(C)N1 (centres unmarked) [Hydrochloride of Example 1] | 6.76e-09 M |  | > 600 mg/kg | 36% | 
7 | CC1=C(C(=O)OCCCN2CCN(C(c3ccc(F)cc3)c3ccc(F)cc3)CC2)C(c2cccc(Cl)c2Cl)C(P2(=O)OCC(C)(C)CO2)=C(C)N1 (centres unmarked) [Dihydrochloride of Example 3] | 1.74e-07 M |  | > 400 mg/kg | 36% | 
